The text below walks through data of PubChem BioAssay AID248 (DTP/NCI, 2004).

The structures appear in SMILES notation. Inconclusive results and toxic doses are left out.

The subject of the test is L1210 leukemia ip in BDF1 mice, survival T/C. The experiment in a line: NCI In Vivo Anticancer Drug Screen. Data for tumor model L1210 Leukemia (intraperitoneal) in B6D2F1 (BDF1) mice. The conditions noted are these: higher = longer survival. A digest of the protocol: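 Antitumor effect is assessed in tumor-bearing animals. Survival in the compound arm is compared with a vehicle-dosed control arm and expressed as their quotient.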

[1] abbreviates: endpoint: mean survival time, dose: 100.0 mg/kg/injection, schedule: Q04DX003 (ip), vehicle: saline with Tween-80.
Where [2] appears, read: endpoint: mean survival time, dose: 200.0 mg/kg/injection, schedule: Q04DX003 (ip), vehicle: saline with Tween-80.
[3] abbreviates: endpoint: mean survival time, dose: 400.0 mg/kg/injection, schedule: Q04DX003 (ip), vehicle: saline with Tween-80.
The mark [4] stands for this setting: endpoint: mean survival time, dose: 25.0 mg/kg/injection, schedule: Q01DX009 (ip), vehicle: saline with Tween-80.
Where [5] appears, read: endpoint: mean survival time, dose: 50.0 mg/kg/injection, schedule: Q01DX009 (ip), vehicle: saline with Tween-80.
Setting [6] is: endpoint: mean survival time, dose: 100.0 mg/kg/injection, schedule: Q04DX003 (ip), vehicle: saline.
Setting [7] is: endpoint: mean survival time, dose: 200.0 mg/kg/injection, schedule: Q04DX003 (ip), vehicle: saline.
[8] abbreviates: endpoint: mean survival time, dose: 400.0 mg/kg/injection, schedule: Q04DX003 (ip), vehicle: saline.
The mark [9] stands for this setting: endpoint: mean survival time, dose: 100.0 mg/kg/injection, schedule: Q01DX009 (ip), vehicle: saline.

In the case of `CN(C)N=Nc1ccc(C(N)=O)cc1`, the T/C reads like this: (endpoint: mean survival time, dose: 30.0 mg/kg/injection, schedule: Q01DX Z (ip), vehicle: other) 108 % of control; (endpoint: mean survival time, dose: 40.0 mg/kg/injection, schedule: Q01DX Z (ip), vehicle: other) 111 % of control; (endpoint: mean survival time, dose: 60.0 mg/kg/injection, schedule: Q01DX Z (ip), vehicle: other) 121 % of control; (endpoint: median survival time, dose: 65.0 mg/kg/injection, schedule: Q01DX001 (ip), vehicle: steriod suspending solution) 100 % of control; (endpoint: median survival time, dose: 65.0 mg/kg/injection, schedule: Q01DX009 (ip), vehicle: steriod suspending solution) 105 % of control; (endpoint: median survival time, dose: 108.0 mg/kg/injection, schedule: Q01DX001 (ip), vehicle: steriod suspending solution) 100 % of control. In addition, the T/C (endpoint: median survival time, dose: 180.0 mg/kg/injection, schedule: Q04DX003 (ip), vehicle: steriod suspending solution) was 105 % of control and the T/C (endpoint: median survival time, dose: 300.0 mg/kg/injection, schedule: Q01DX001 (ip), vehicle: steriod suspending solution) is 100 % of control.
Consider `O=C(NCc1ccccc1)C1C2C=CC(CC2)C1C(=O)NCc1ccccc1` (configuration not stated), for which the T/C under setting [1] was 96 % of control, the T/C under setting [2] is 96 % of control and the T/C under setting [3] is 87 % of control.
`Nc1nc2c([nH]c(=O)n2C2OC(CO)C(O)C2O)c(=O)n1N` (configuration not stated): the T/C (endpoint: mean survival time, dose: 100.0 mg/kg/injection, schedule: Q01DX001 (ip), vehicle: saline) is 102 % of control; the T/C (endpoint: mean survival time, dose: 200.0 mg/kg/injection, schedule: Q01DX001 (ip), vehicle: saline) is 101 % of control; the T/C (endpoint: mean survival time, dose: 400.0 mg/kg/injection, schedule: Q01DX001 (ip), vehicle: saline) was 96 % of control.
Turning to `O=C(CC(Cl)(C(F)(F)F)C(F)(F)F)c1cccc([N+](=O)[O-])c1`, the T/C was 91 % of control (endpoint: mean survival time, dose: 12.5 mg/kg/injection, schedule: Q01DX009 (ip), vehicle: saline with Tween-80); 96 % of control (endpoint: mean survival time, dose: 12.5 mg/kg/injection, schedule: Q04DX003 (ip), vehicle: saline with Tween-80); 96 % of control under setting [4]; 98 % of control (endpoint: mean survival time, dose: 25.0 mg/kg/injection, schedule: Q04DX003 (ip), vehicle: saline with Tween-80); 96 % of control under setting [5]; 100 % of control (endpoint: mean survival time, dose: 50.0 mg/kg/injection, schedule: Q04DX003 (ip), vehicle: saline with Tween-80).
Consider `O=C1/C(=C/c2cccc([N+](=O)[O-])c2)CCc2ccccc21`, for which the T/C is, setting by setting: (endpoint: mean survival time, dose: 100.0 mg/kg/injection, schedule: Q04DX003 (ip), vehicle: acetone) 109 % of control; (endpoint: mean survival time, dose: 200.0 mg/kg/injection, schedule: Q04DX003 (ip), vehicle: acetone) 101 % of control; (endpoint: mean survival time, dose: 400.0 mg/kg/injection, schedule: Q04DX003 (ip), vehicle: acetone) 96 % of control.
As to `COC(=O)CCC(NC(=O)C1CSC(C)(C)N1C=O)C(=O)OC` (configuration not stated), the T/C runs as follows: under setting [6], 104 % of control; under setting [7], 101 % of control; under setting [8], 101 % of control.
On to `CCCNC(C)(C)C(SS)c1ccc(Cl)cc1` (configuration not stated), for which the T/C was 97 % of control (endpoint: mean survival time, dose: 100.0 mg/kg/injection, schedule: Q01DX009 (ip), vehicle: saline sonified); 106 % of control (endpoint: mean survival time, dose: 100.0 mg/kg/injection, schedule: Q04DX003 (ip), vehicle: saline sonified); 107 % of control (endpoint: mean survival time, dose: 200.0 mg/kg/injection, schedule: Q01DX009 (ip), vehicle: saline sonified); 95 % of control (endpoint: mean survival time, dose: 200.0 mg/kg/injection, schedule: Q04DX003 (ip), vehicle: saline sonified); 96 % of control (endpoint: mean survival time, dose: 400.0 mg/kg/injection, schedule: Q01DX009 (ip), vehicle: saline sonified); 95 % of control (endpoint: mean survival time, dose: 400.0 mg/kg/injection, schedule: Q04DX003 (ip), vehicle: saline sonified).
Regarding `Cc1nccnc1S(=O)c1ccc(Br)cc1` (configuration not stated), the T/C reads like this: (endpoint: mean survival time, dose: 100.0 mg/kg/injection, schedule: Q01DX001 (ip), vehicle: Klucel (hydroxypropylcellulose) (HPC)) 98 % of control; (endpoint: mean survival time, dose: 200.0 mg/kg/injection, schedule: Q01DX001 (ip), vehicle: Klucel (hydroxypropylcellulose) (HPC)) 95 % of control; (endpoint: mean survival time, dose: 400.0 mg/kg/injection, schedule: Q01DX001 (ip), vehicle: Klucel (hydroxypropylcellulose) (HPC)) 92 % of control.
As to `CC1CN=C(c2ccc(NC(=O)C3CCC(C(=O)Nc4ccc(C5=NCC(C)N5)cc4)CC3)cc2)N1` (configuration not stated), the T/C reads like this: (endpoint: mean survival time, dose: 31.0 mg/kg/injection, schedule: Q01DX015 (ip), vehicle: methylcellulose (MC)) 159 % of control; (endpoint: mean survival time, dose: 62.0 mg/kg/injection, schedule: Q01DX015 (ip), vehicle: methylcellulose (MC)) 113 % of control.
Regarding `O=S(=O)(O)CCCCO`, the T/C was 98 % of control under setting [9]; 95 % of control under setting [6]; 95 % of control (endpoint: mean survival time, dose: 200.0 mg/kg/injection, schedule: Q01DX009 (ip), vehicle: saline); 100 % of control under setting [7]; 95 % of control (endpoint: mean survival time, dose: 400.0 mg/kg/injection, schedule: Q01DX009 (ip), vehicle: saline); 97 % of control under setting [8].
Take `Cc1cc(C)cc(NC(=O)c2ccccc2N)c1`: the T/C under setting [1] was 96 % of control, the T/C under setting [2] was 91 % of control and the T/C under setting [3] was 93 % of control.
As for `Nc1nc(SCCO)nc2nc[nH]c12`, the T/C reads like this: under setting [1], 96 % of control; under setting [2], 95 % of control; under setting [3], 90 % of control.
For `CC1(CBr)OCCCO1`, the T/C is, setting by setting: under setting [4], 96 % of control; (endpoint: mean survival time, dose: 25.0 mg/kg/injection, schedule: Q04DX002 (ip), vehicle: saline) 93 % of control; under setting [5], 103 % of control; (endpoint: mean survival time, dose: 50.0 mg/kg/injection, schedule: Q04DX002 (ip), vehicle: saline) 93 % of control; (endpoint: mean survival time, dose: 100.0 mg/kg/injection, schedule: Q01DX009 (ip), vehicle: saline with Tween-80) 103 % of control; (endpoint: mean survival time, dose: 100.0 mg/kg/injection, schedule: Q04DX002 (ip), vehicle: saline with Tween-80) 95 % of control. The T/C (endpoint: mean survival time, dose: 100.0 mg/kg/injection, schedule: Q04DX002 (ip), vehicle: saline) is 93 % of control.
With `NCC(=O)O.[Zn+2]`, the T/C runs as follows: (endpoint: mean survival time, dose: 100.0 mg/kg/injection, schedule: Q01DX001 (ip), vehicle: water) 97 % of control; (endpoint: mean survival time, dose: 200.0 mg/kg/injection, schedule: Q01DX001 (ip), vehicle: water) 96 % of control; (endpoint: mean survival time, dose: 400.0 mg/kg/injection, schedule: Q01DX001 (ip), vehicle: water) 94 % of control.
Take `C#CC(O)(/C=C\Cl)CC` (configuration not stated): the T/C by setting is: (endpoint: mean survival time, dose: 12.5 mg/kg/injection, schedule: Q01DX009 (ip), vehicle: saline) 102 % of control; (endpoint: mean survival time, dose: 25.0 mg/kg/injection, schedule: Q01DX009 (ip), vehicle: saline) 93 % of control; (endpoint: mean survival time, dose: 25.0 mg/kg/injection, schedule: Q04DX003 (ip), vehicle: saline) 101 % of control; (endpoint: mean survival time, dose: 50.0 mg/kg/injection, schedule: Q01DX009 (ip), vehicle: saline) 94 % of control; (endpoint: mean survival time, dose: 50.0 mg/kg/injection, schedule: Q04DX003 (ip), vehicle: saline) 95 % of control; under setting [9], 86 % of control. Moreover, the T/C runs as follows: under setting [6], 97 % of control; under setting [7], 106 % of control.
For the compound `C=C(C)C(=O)OC` (tested in a mixture with another compound), the T/C is 107 % of control (endpoint: mean survival time, dose: 50.0 mg/kg/injection, schedule: Q04DX002 (ip), vehicle: Klucel (hydroxypropylcellulose) (HPC)); 96 % of control (endpoint: mean survival time, dose: 75.0 mg/kg/injection, schedule: Q01DX001 (ip), vehicle: other); 101 % of control (endpoint: mean survival time, dose: 100.0 mg/kg/injection, schedule: Q04DX002 (ip), vehicle: Klucel (hydroxypropylcellulose) (HPC)); 94 % of control (endpoint: mean survival time, dose: 150.0 mg/kg/injection, schedule: Q01DX001 (ip), vehicle: other); 93 % of control (endpoint: mean survival time, dose: 200.0 mg/kg/injection, schedule: Q04DX002 (ip), vehicle: Klucel (hydroxypropylcellulose) (HPC)); 91 % of control (endpoint: mean survival time, dose: 300.0 mg/kg/injection, schedule: Q01DX001 (ip), vehicle: other). Besides, the T/C (endpoint: mean survival time, dose: 400.0 mg/kg/injection, schedule: Q04DX002 (ip), vehicle: Klucel (hydroxypropylcellulose) (HPC)) is 90 % of control.
In the case of `O=[N+]([O-])c1ccc2c(c1)Cc1cc(O)c(I)cc1-2`, the T/C is, setting by setting: (endpoint: mean survival time, dose: 100.0 mg/kg/injection, schedule: Q01DX001 (ip), vehicle: carboxymethylcellulose (CMC)) 101 % of control; (endpoint: mean survival time, dose: 200.0 mg/kg/injection, schedule: Q01DX001 (ip), vehicle: carboxymethylcellulose (CMC)) 101 % of control; (endpoint: mean survival time, dose: 400.0 mg/kg/injection, schedule: Q01DX001 (ip), vehicle: carboxymethylcellulose (CMC)) 97 % of control.
